Values joined by “and” are separate entries in the source; they are usually repeats but may differ in a detail not shown here. Equal entries are not always repeated. Toxic doses and inconclusive results are not listed.
System: L1210 leukemia ip in BDF1 mice, survival T/C
Assay: NCI In Vivo Anticancer Drug Screen. Data for tumor model L1210 Leukemia (intraperitoneal) in B6D2F1 (BDF1) mice
Details: endpoint: mean survival time, higher = longer survival
Procedure, shortened: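 Value reflects the ratio of survival in compound-treated mice to survival in vehicle-treated controls, with both groups carrying the same transplanted tumor.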

[1] = dose: 100.0 mg/kg/injection, schedule: Q01DX009 (ip), vehicle: Klucel (hydroxypropylcellulose) (HPC)
[2] = dose: 100.0 mg/kg/injection, schedule: Q04DX002 (ip), vehicle: saline with Tween-80
[3] = dose: 200.0 mg/kg/injection, schedule: Q01DX009 (ip), vehicle: Klucel (hydroxypropylcellulose) (HPC)
[4] = dose: 400.0 mg/kg/injection, schedule: Q01DX009 (ip), vehicle: Klucel (hydroxypropylcellulose) (HPC)
[5] = dose: 100.0 mg/kg/injection, schedule: Q04DX003 (ip), vehicle: saline with Tween-80
[6] = dose: 200.0 mg/kg/injection, schedule: Q04DX003 (ip), vehicle: saline with Tween-80
[7] = dose: 100.0 mg/kg/injection, schedule: Q01DX009 (ip), vehicle: saline with Tween-80
[8] = dose: 200.0 mg/kg/injection, schedule: Q01DX009 (ip), vehicle: saline with Tween-80
[9] = dose: 400.0 mg/kg/injection, schedule: Q01DX009 (ip), vehicle: saline with Tween-80
[10] = dose: 100.0 mg/kg/injection, schedule: Q04DX003 (ip), vehicle: Klucel (hydroxypropylcellulose) (HPC)
[11] = dose: 200.0 mg/kg/injection, schedule: Q04DX003 (ip), vehicle: Klucel (hydroxypropylcellulose) (HPC)
[12] = dose: 400.0 mg/kg/injection, schedule: Q04DX003 (ip), vehicle: Klucel (hydroxypropylcellulose) (HPC)
[13] = dose: 100.0 mg/kg/injection, schedule: Q01DX001 (ip), vehicle: alcohol
[14] = dose: 200.0 mg/kg/injection, schedule: Q01DX001 (ip), vehicle: alcohol
[15] = dose: 400.0 mg/kg/injection, schedule: Q01DX001 (ip), vehicle: alcohol

For `CN=C(N)c1ccc(N=C(N)c2ccc(N=C(N)c3ccc(N)cc3)cc2)cc1`, which T/C (dose: 4.25 mg/kg/injection, schedule: Q01DX Z (ip), vehicle: water) is on record?
Its T/C is 112 % of control.

What about the T/C (dose: 8.5 mg/kg/injection, schedule: Q01DX Z (ip), vehicle: water) of the same compound?
The T/C was 120 % of control.

What about the T/C (dose: 35.0 mg/kg/injection, schedule: Q01DX015 (ip), vehicle: saline) of the same compound?
The T/C was 151 % of control.

And the T/C (dose: 50.0 mg/kg/injection, schedule: Q01DX001 (ip), vehicle: saline)?
Its T/C is 115 % of control.

And the T/C (dose: 62.5 mg/kg/injection, schedule: Q01DX Z (oral), vehicle: water)?
Its T/C is 101 % of control.

And the T/C (dose: 125.0 mg/kg/injection, schedule: Q01DX Z (oral), vehicle: water)?
Its T/C is 103 % of control.

What about the T/C (dose: 250.0 mg/kg/injection, schedule: Q01DX Z (oral), vehicle: water) of the same compound?
The T/C was 102 % of control.

`c1ccc(CNc2nccs2)cc1` was tested. Which T/C (dose: 75.0 mg/kg/injection, schedule: Q01DX001 (ip), vehicle: carboxymethylcellulose (CMC)) did it give?
The T/C was 96 % of control.

And the T/C (dose: 150.0 mg/kg/injection, schedule: Q01DX001 (ip), vehicle: carboxymethylcellulose (CMC))?
Its T/C is 91 % of control.

What about the T/C (dose: 300.0 mg/kg/injection, schedule: Q01DX001 (ip), vehicle: carboxymethylcellulose (CMC)) of the same compound?
The T/C was 95 % of control.

What does the source list for `CC(=O)N1CN(C(C)=O)CN(C(C)=O)C1`?
T/C [1]: 95 % of control; T/C [2]: 91 % of control; T/C [3]: 92 % of control; T/C (dose: 200.0 mg/kg/injection, schedule: Q04DX002 (ip), vehicle: saline with Tween-80): 102 % of control; T/C [4]: 97 % of control; T/C (dose: 400.0 mg/kg/injection, schedule: Q04DX002 (ip), vehicle: saline with Tween-80): 95 % of control

For `CC(C)CC([NH-])C(=O)[O-].O=C(O)C(=O)O.[Co+3].[NH-]CCN(CC[NH-])CC[NH-]`, which T/C (dose: 50.0 mg/kg/injection, schedule: Q01DX001 (ip), vehicle: other) is on record?
The T/C was 92 % of control.

What about the T/C (dose: 100.0 mg/kg/injection, schedule: Q01DX001 (ip), vehicle: other) of the same compound?
The T/C was 100 % of control.

And the T/C (dose: 200.0 mg/kg/injection, schedule: Q01DX001 (ip), vehicle: other)?
Its T/C is 94 % of control.

And the T/C (dose: 400.0 mg/kg/injection, schedule: Q01DX001 (ip), vehicle: other)?
Its T/C is 86 % of control.

`NC(CCCO)Cc1cc2ccccc2c2ccccc12` (configuration not stated) was tested. Which T/C (dose: 100.0 mg/kg/injection, schedule: Q01DX001 (ip), vehicle: saline) did it give?
The T/C was 101 % of control.

And the T/C (dose: 200.0 mg/kg/injection, schedule: Q01DX001 (ip), vehicle: saline)?
Its T/C is 101 % of control.

And the T/C (dose: 400.0 mg/kg/injection, schedule: Q01DX001 (ip), vehicle: saline)?
Its T/C is 109 % of control.

Which T/C (dose: 100.0 mg/kg/injection, schedule: Q01DX001 (ip), vehicle: saline with Tween-80) does the source give for `CCCCCCCCCCCCc1ccc(/C(C)=N/NC(=O)c2ccc[n+](C)c2)cc1` here?
Its T/C is 93 % of control.

Which results are given for `O=C(O)CCC(=O)CC1CCCCC1`?
T/C [5]: 101 % of control; T/C [6]: 87 % of control

What does the source list for `CCCCCCCC(=O)N1C(=O)CCC1C(=O)NCC(=O)NCC(=O)OCc1ccccc1` (configuration not stated)?
T/C (dose: 100.0 mg/kg/injection, schedule: Q01DX001 (ip), vehicle: Klucel (hydroxypropylcellulose) (HPC)): 95 % of control; T/C (dose: 200.0 mg/kg/injection, schedule: Q01DX001 (ip), vehicle: Klucel (hydroxypropylcellulose) (HPC)): 98 % of control; T/C (dose: 400.0 mg/kg/injection, schedule: Q01DX001 (ip), vehicle: Klucel (hydroxypropylcellulose) (HPC)): 91 % of control

With `COc1cc(C2=N/C(=C\c3cccc([N+](=O)[O-])c3)C(=O)O2)cc(OC)c1OC` as the compound, how does the T/C (dose: 25.0 mg/kg/injection, schedule: Q04DX002 (ip), vehicle: saline with Tween-80) read?
Its T/C is 87 % of control.

What about the T/C (dose: 50.0 mg/kg/injection, schedule: Q04DX002 (ip), vehicle: saline with Tween-80) of the same compound?
The T/C was 90 % of control.

And the T/C [2]?
The T/C was 93 % of control and 89 % of control.

`Cc1[nH]ncc1Br` was tested. Which T/C [5] did it give?
The T/C was 98 % of control.

And the T/C [6]?
Its T/C is 92 % of control.

And the T/C (dose: 400.0 mg/kg/injection, schedule: Q04DX003 (ip), vehicle: saline with Tween-80)?
Its T/C is 103 % of control.

Which T/C [7] does the source give for `COc1cc([N+](=O)[O-])ccc1NC(=O)Cc1ccccc1` here?
The T/C was 111 % of control.

What about the T/C [8] of the same compound?
Its T/C is 91 % of control.

And the T/C [9]?
The T/C was 96 % of control.

With `O=S1(=O)CCCC1=C(c1ccccc1)c1ccccc1` as the compound, how does the T/C [7] read?
The T/C was 105 % of control.

What about the T/C [8] of the same compound?
Its T/C is 100 % of control.

What about the T/C [9] of the same compound?
The T/C was 107 % of control.

How did the T/C (dose: 100.0 mg/kg/injection, schedule: Q04DX003 (ip), vehicle: saline) turn out when `CCC(C)C(CC(=O)O)C(=O)O` (configuration not stated) was run?
Its T/C is 97 % of control.

What about the T/C (dose: 200.0 mg/kg/injection, schedule: Q04DX003 (ip), vehicle: saline) of the same compound?
The T/C was 94 % of control.

And the T/C (dose: 400.0 mg/kg/injection, schedule: Q04DX003 (ip), vehicle: saline)?
The T/C was 92 % of control.

With `Cc1ccc(S(=O)N(OCc2ccccc2)S(=O)c2ccc(C)cc2)cc1` (configuration not stated) as the compound, how does the T/C (dose: 100.0 mg/kg/injection, schedule: Q04DX002 (ip), vehicle: other) read?
Its T/C is 100 % of control.

And the T/C (dose: 200.0 mg/kg/injection, schedule: Q04DX002 (ip), vehicle: other)?
The T/C was 100 % of control.

What about the T/C (dose: 400.0 mg/kg/injection, schedule: Q04DX002 (ip), vehicle: other) of the same compound?
Its T/C is 100 % of control.

Which results are given for `NCc1c(Cl)c(Cl)c(Cl)c(CN)c1Cl`?
T/C (dose: 50.0 mg/kg/injection, schedule: Q01DX001 (ip), vehicle: carboxymethylcellulose (CMC)): 89 % of control; T/C (dose: 50.0 mg/kg/injection, schedule: Q01DX009 (ip), vehicle: saline with Tween-80): 97 % of control; T/C (dose: 100.0 mg/kg/injection, schedule: Q01DX001 (ip), vehicle: carboxymethylcellulose (CMC)): 94 % of control; T/C [7]: 102 % of control; T/C [8]: 93 % of control

Which T/C (dose: 31.25 mg/kg/injection, schedule: Q01DX009 (ip), vehicle: acetone) does the source give for `CCOC(=O)CNc1ccc(C(=O)OCC)s1` here?
The T/C was 98 % of control.

And the T/C (dose: 62.5 mg/kg/injection, schedule: Q01DX009 (ip), vehicle: acetone)?
The T/C was 100 % of control.

And the T/C (dose: 125.0 mg/kg/injection, schedule: Q01DX009 (ip), vehicle: acetone)?
Its T/C is 96 % of control.

What about the T/C (dose: 190.0 mg/kg/injection, schedule: Q01DX009 (ip), vehicle: saline) of the same compound?
Its T/C is 94 % of control.

What about the T/C (dose: 285.0 mg/kg/injection, schedule: Q01DX009 (ip), vehicle: saline) of the same compound?
The T/C was 88 % of control.

Which results are given for `CN(C)C=O.CN(C)C=O.[Cl][Sn]([Cl])([Cl])[Cl]`?
T/C (dose: 50.0 mg/kg/injection, schedule: Q01DX009 (ip), vehicle: Klucel (hydroxypropylcellulose) (HPC)): 103 % of control; T/C [1]: 93 % of control; T/C [10]: 92 % of control; T/C [11]: 92 % of control

Which results are given for `CC(=O)Nc1ccc(OC(=O)Nc2ccc(Cl)c([N+](=O)[O-])c2)cc1`?
T/C [1]: 97 % of control; T/C [10]: 112 % of control; T/C [3]: 104 % of control; T/C [11]: 97 % of control; T/C [4]: 93 % of control; T/C [12]: 92 % of control

What does the source list for `Cc1ncc(C#N)c(=O)[nH]1`?
T/C (dose: 25.0 mg/kg/injection, schedule: Q04DX003 (ip), vehicle: saline with Tween-80): 92 % of control; T/C (dose: 50.0 mg/kg/injection, schedule: Q04DX003 (ip), vehicle: saline with Tween-80): 90 % of control; T/C [5]: 90 % of control

`Nc1nc(N)c(N)c(Nc2ccc(O)cc2)n1` was tested. Which T/C (dose: 100.0 mg/kg/injection, schedule: Q01DX Z (ip), vehicle: saline) did it give?
Its T/C is 102 % of control.

Which T/C [13] does the source give for `O=C1CC(=O)N2CCCCC2N1` (configuration not stated) here?
The T/C was 106 % of control.

And the T/C [14]?
Its T/C is 103 % of control.

What about the T/C [15] of the same compound?
The T/C was 110 % of control.

Which T/C [13] does the source give for `CCCCCCCCN(CCCCCCCC)CC(=O)c1ccc2cc(Br)c3ccccc3c2c1` here?
The T/C was 101 % of control.

What about the T/C [14] of the same compound?
The T/C was 100 % of control.

And the T/C [15]?
Its T/C is 103 % of control.

Which results are given for `CC(C)NCCNc1ccnc2cc(Cl)ccc12`?
T/C (dose: 10.0 mg/kg/injection, schedule: Q01DX001 (ip), vehicle: saline): 94 % of control; T/C (dose: 20.0 mg/kg/injection, schedule: Q01DX001 (ip), vehicle: saline): 98 % of control; T/C (dose: 40.0 mg/kg/injection, schedule: Q01DX001 (ip), vehicle: saline): 96 % of control

Which results are given for `C/C=C/CC1(CCCC)C(=O)NC(=O)NC1=O`?
T/C (dose: 75.0 mg/kg/injection, schedule: Q01DX001 (ip), vehicle: saline): 106 % of control; T/C (dose: 150.0 mg/kg/injection, schedule: Q01DX001 (ip), vehicle: saline): 102 % of control

Which T/C [1] does the source give for `COc1ccc(/C=C2\C(=O)OC(=O)\C2=C\c2ccc(OC)c(OC)c2)cc1OC` here?
Its T/C is 100 % of control.

What about the T/C [10] of the same compound?
The T/C was 102 % of control.

And the T/C [3]?
The T/C was 97 % of control.

And the T/C [11]?
Its T/C is 102 % of control.

And the T/C [12]?
Its T/C is 96 % of control.

— PubChem BioAssay AID248 (DTP/NCI, 2004)
